How the values were obtained:
[1] = Light stability test (colour change over 3 months); assay type: physicochemical; conditions: for Discoloration: installed in the place where light was shut off
Source text: The antimicrobial monomers manufactured in Examples 9 and 10 and the antimicrobial acrylic copolymers manufactured in Examples 17 to 23 were used as samples. 3 g of each sample were respectively put in lucid glass test tubes, which were then placed under a direct ray of light. Also, according to the same method, the samples were collected in lucid glass test tubes which were then sealed with aluminum foil and installed in a place where indoor light was shut off.

E. coli (KCTC 1682) = test: Strain reduction rate determination (shake flask method); assay type: cell-based; conditions: for Right After Inoculation (number of bacteria): 5 minutes after inoculation, 0.1 g powder or 2 ml stock solution; for After 24 hours (number of bacteria): 24 hours incubation with agitation; for Strain Reduction Rate: vs control after 24 hours
Experimental: (§1) The antimicrobial test was conducted by strain reduction rate determination (shake flask method). As the samples, 0.1 g of each of the compounds of Examples 9, 13, 15, and 18 to 23 was used in the form of powder, and in the case of Examples 28 to 31, 2 ml of their stock solution was used. The buffer solutions used in the antibacterial test were those prepared by dissolving each of 28.39 g of […] and 23.99 g of NaH2PO4 in 1000 ml of purified water, blending them in the volume of 72 ml and 28 ml respectively, adding 5 g of NaCl thereto, and then pouring purified water thereinto to adjust their total volume to 1000 ml. As the control, the same bacterial strains, to which no samples were added, were used. The samples were mixed with bacterial strain inocula (5.0×105), which were then incubated while agitating for 24 hours and then incubated on agar media. The reduction rate of strain number was determined by the following Equation 1. (Reduction Rate %)={(A−B)/A}×100 [Equation 1]
(§2) A: Number of Bacteria in Control after 24 Hours
(§3) B: Number of Bacteria in Sample after 24 Hours
(§4) In Table 6 above, “right after inoculation” refers to after 5 minutes from the time the bacterial strains were inoculated.

S. aureus (KCTC 1621) = test: as above; assay type: cell-based; conditions: for Right After Inoculation (number of bacteria): 5 minutes after inoculation, 0.1 g powder or 2 ml stock solution; for After 24 hours (number of bacteria): 24 hours incubation with agitation; for Strain Reduction Rate: vs control after 24 hours
Experimental: as §1, §2, §3, §4

Row | SMILES | Colour, Four Weeks Later ([1]; Direct Ray of Light) | Colour, Initial ([1]; Direct Ray of Light) | Colour, Ten Weeks Later ([1]; Direct Ray of Light) | Colour, Twelve Weeks Later ([1]; Direct Ray of Light) | Colour, Two Weeks Later ([1]; Direct Ray of Light) | Colour, Eight Weeks Later ([1]; Light Shut Off) | Colour, Four Weeks Later ([1]; Light Shut Off) | Colour, Initial ([1]; Light Shut Off) | Colour, Six Weeks Later ([1]; Light Shut Off) | Colour, Ten Weeks Later ([1]; Light Shut Off) | Colour, Twelve Weeks Later ([1]; Light Shut Off) | Colour, Two Weeks Later ([1]; Light Shut Off) | Discoloration [1] | Right After Inoculation (number of bacteria) (E. coli (KCTC 1682)) | After 24 hours (number of bacteria) (E. coli (KCTC 1682)) | Strain Reduction Rate (E. coli (KCTC 1682)) [%] | Right After Inoculation (number of bacteria) (S. aureus (KCTC 1621)) | After 24 hours (number of bacteria) (S. aureus (KCTC 1621)) | Strain Reduction Rate (S. aureus (KCTC 1621)) [%]
1 | C=C(C)C(=O)OCC(O)CN1CCN(c2cc3c(cc2F)c(=O)c(C(=O)O)cn3CC)CC1 (centres unmarked) [Example 10, 1-ethyl-6-fluoro-1,4-dihydro-7-[4-(2-hydroxy-6-methyl-4-oxa-5-oxo-6-heptenyl)-1-piperazinyl]-4-oxo-3-quinoline carboxylic acid] | orange | white | brown | brown | yellow | white | white | white | white | white | white | white | not discolored |  |  |  |  |  | 
2 | C=C(C)C(=O)OCC(O)CN1CCN(c2cc3c(cc2F)c(=O)c(C(=O)O)cn3C2CC2)CC1 (centres unmarked) [Example 9, 1-cyclopropyl-6-fluoro-1,4-dihydro-7-[4-(2-hydroxy-6-methyl-4-oxa-5-oxo-6-heptenyl)-1-piperazinyl]-4-oxo-3-quinoline carboxylic acid] | orange | white | brown | brown | yellow | white | white | white | white | white | white | white | not discolored | not detected | not detected | 100 | not detected | not detected | 100
3 | C=C(C)C(=O)N1CCN(c2cc3c(cc2F)c(=O)c(C(=O)O)cn3C2CC2)CC1 [Example 13, 1-cyclopropyl-6-fluoro-1,4-dihydro-7-[4-(2-methyl-1-oxo-2-propenyl)-1-piperazinyl]-4-oxo-3-quinoline carboxylic acid] |  |  |  |  |  |  |  |  |  |  |  |  |  | not detected | not detected | 100 | not detected | not detected | 100

— patent US7777033B2, “Monomer with anti-microbial character, polymer using the same, and manufacturing method thereof” (Micro Science Tech Co., Ltd., priority 2005, dated 2010)
